From US20240108634A1, “COMPOSITIONS AND METHODS FOR INHIBITING YAP” (The United States Government as represented by the …, priority 2021, published 2024) come the findings set out here.

The target in one experiment is T1, YAP-TEAD interaction (Homo sapiens, UniProt P46937).
T1 construct: expressed in transfected cells; host or cells: LN229
In words: Co-immunoprecipitation of myc-TEAD with HA-YAP from treated LN229 cells. The settings on record: LN229 cells, 24 h. The experiment is classed as cell-based. The procedure:
FIGS. 1A-G show the identification of a YAP1-TEAD1 binding interface inhibitor. […] The Gal4 DBD was fused to residues 50-171 of human YAP1 and the Gal4 AD was fused to residues 194-411 of human TEAD1. These fusions were expressed in yeast containing reporters harboring Gal4 upstream activating sequences (UAS). […] Yeast expressing either p53-DBD and SV40 large T antigen-AD fusions or YAP1-DBD and TEAD1-AD fusions were plated on selective media. Compounds were pinned onto the plate surfaces by robotic transfer and subsequently examined for halo formation (indicated by red circles). Compounds inhibiting YAP1-TEAD1 mediated growth on selective media while having no effect on p53-T antigen mediated yeast growth were considered specific. Compounds which blocked the growth of both strains were considered nonspecific and were classified as having general antifungal properties. […] His-tagged YAP (amino acids 50-171 of Accession No. NP_006097) was used in a GST pull-down assay using GST-TEAD (amino acids 194-411 of Accession No. NP_068780) immobilized on glutathione resin. Pull-down products were analyzed by SDS-PAGE and silver staining. […] Cells treated with antimycin A are shown as a negative control. […] Raw binding sensorgrams obtained at each concentration were fitted to a 1:1 binding model and Kon, Koff and KD were calculated by simultaneous non-linear regression analyses.
Protein and mRNA analyses, immunoprecipitation, in vitro bead-coupled inhibitor binding assays and HPLC analyses. […] Antigen-antibody complexes were detected using appropriate horseradish peroxidase-conjugated secondary antibodies (GE Healthcare) and enhanced chemiluminescence (Amersham ECL Prime). […] For quantitative RT-PCR, extraction of RNA was performed using Trizol® (Life Technologies). Total RNA was then quantified and integrity assessed using an Agilent 2100 Bioanalyzer (Agilent Technology). […] SYBR® Green quantitative PCR (Millipore Sigma) was performed in triplicate in 96-well optical plates on an ABI Prism 7000 Sequence Detection System (Life Technologies) according to the manufacturer's instructions. […]

For another experiment, the target named is T2, full-length human YAP1 (Homo sapiens, UniProt P46937).
T2 construct: purified recombinant HA-tagged full-length human YAP1; made in house
In words: Inhibitor-coupled bead binding of recombinant HA-tagged YAP. Conditions: immunoblot of bound HA-YAP. Here is the method: FIGS. 1A-G show the identification of a YAP1-TEAD1 binding interface inhibitor. […] The Gal4 DBD was fused to residues 50-171 of human YAP1 and the Gal4 AD was fused to residues 194-411 of human TEAD1. These fusions were expressed in yeast containing reporters harboring Gal4 upstream activating sequences (UAS). […] Yeast expressing either p53-DBD and SV40 large T antigen-AD fusions or YAP1-DBD and TEAD1-AD fusions were plated on selective media. Compounds were pinned onto the plate surfaces by robotic transfer and subsequently examined for halo formation (indicated by red circles). […] Pull-down products were analyzed by SDS-PAGE and silver staining. […] Raw binding sensorgrams obtained at each concentration were fitted to a 1:1 binding model and Kon, Koff and KD were calculated by simultaneous non-linear regression analyses.
Protein and mRNA analyses, immunoprecipitation, in vitro bead-coupled inhibitor binding assays and HPLC analyses. […] Antigen-antibody complexes were detected using appropriate horseradish peroxidase-conjugated secondary antibodies (GE Healthcare) and enhanced chemiluminescence (Amersham ECL Prime). […] For quantitative RT-PCR, extraction of RNA was performed using Trizol® (Life Technologies). Total RNA was then quantified and integrity assessed using an Agilent 2100 Bioanalyzer (Agilent Technology). […]

T1 sequence (P46937 whole entry): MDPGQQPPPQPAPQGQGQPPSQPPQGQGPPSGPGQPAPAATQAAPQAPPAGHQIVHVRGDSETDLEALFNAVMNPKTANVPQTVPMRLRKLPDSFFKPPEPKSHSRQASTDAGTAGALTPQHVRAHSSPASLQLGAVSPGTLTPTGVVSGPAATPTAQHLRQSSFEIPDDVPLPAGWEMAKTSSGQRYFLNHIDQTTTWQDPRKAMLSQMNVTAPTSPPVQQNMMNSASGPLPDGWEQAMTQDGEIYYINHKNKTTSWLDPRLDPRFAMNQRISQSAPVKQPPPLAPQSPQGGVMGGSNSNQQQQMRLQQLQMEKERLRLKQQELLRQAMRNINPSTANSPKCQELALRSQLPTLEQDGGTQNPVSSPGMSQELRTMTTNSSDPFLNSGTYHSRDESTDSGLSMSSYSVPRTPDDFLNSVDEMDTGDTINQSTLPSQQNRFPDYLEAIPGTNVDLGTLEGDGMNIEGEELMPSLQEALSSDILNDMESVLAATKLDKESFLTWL
T2 sequence (P46937 whole entry): as above

With verteporfin, the “Cell treatment concentration required for observable blockade of the interaction” value at YAP-TEAD interaction was 4 µM. On YAP-TEAD interaction (equimolar to NSC682769), the “Inhibition of HA-YAP/myc-TEAD interaction at equimolar concentrations” value is “ineffective”. With `COc1ccc(CN2C(=O)c3ccccc3C2=O)c(OC)c1` [IRES-J007, reference compound], the “Binding of YAP to compound-coupled beads” value on full-length human YAP1 was “no significant binding”.
